Data published in patent US20250302343A1, “AN ELECTRODE ARRAY FOR MEASURING THE PH OF ANIMAL TISSUES, A PROBE […] AN ARRAY, AND AN ASSEMBLY COMPRISING SAID PROBE” (QUANTUM I[…]. Z O.O., priority 2022, published 2025).
Entries after “also recorded” stand apart in the source; their conditions may differ.

Settings: electrodes comprising the ionic liquid in the reference electrode membrane; ISO 10993-5:2009 (E) and ISO 10993-12:2021 (E)
Description: An evaluation of the acute cytotoxicity of the reference electrode components was performed.
Cytotoxicity-based biocompatibility tests were performed according to the procedures of ISO 10993-5:2009 (E) and ISO 10993-12:2021 (E) standards.

Compound	acute cytotoxicity
1-ethyl-3-methylimidazolium bis(trifluoromethyl sulfonyl)imide	no significant toxicity; also recorded: lowest cytotoxicity
CCCCn1cc[n+](C)c1.F[P-](F)(F)(F)(F)F [1-butyl-3-methylimidazolium hexafluorophosphate]	no significant toxicity
CCCCn1cc[n+](C)c1.[Cl-] [1-butyl-3-methylimidazolium chloride]	no significant toxicity
CC(=O)[O-].CCCCn1cc[n+](C)c1 [1-butyl-3-methylimidazolium acetate]	no significant toxicity
choline phosphate	no significant toxicity
choline acetate	no significant toxicity
